In data set [1] the test system is SH-SY5Y cells. Kind of data set: Dose-response screening for non-toxic concentrations, MTT reduction assay. It counts as cell-based, human. As to conditions: 10 µM to 40 µM, 25 h. As for the experimental part: The neuroprotective effect of these new multi-target drugs designed for AD was evaluated using SH-SY5Y cells treated with Aβ1-42 peptides or ascorbate/iron. For each compound we performed a dose-response curve to select a non-toxic concentration (Figure 7).
Figure 7. Dose-response screening to select non-toxic concentrations of TAC-BF hybrids. Cells were treated with varying concentration of TAC-BF conjugates (from 10 μM to 40 μM) for 25 h and cell viability was determined using the MTT reduction assay.
SH-SY5Y human neuroblastoma cell line (ATCC-CRL-2266) is grown in Dulbecco’s modified Eagle’s medium (DMEM), and were obtained from Gibco-Invitrogen (Life Technologies Ltd, UK) with 10% heat inactivated foetal calf serum, containing 50 U/mL penicillin and 50 µg/mL streptomycin, under a humidified atmosphere of 95% air- 5% CO2 at 37 °C. Cells were plated at 0.12 × 10^6 cells/mL for cell viability assay. The tested compounds (18, 19, 20, 21, 23 and 24) were dissolved in DMSO at a concentration of 50 mM and aliquots were stored at −20 °C. We performed a dose-response screening (from 10 µM to 40 µM) in order to choose the highest non-toxic concentration. As a result we selected: 20 µM final concentrations for compounds 18, 19, 20 and 23; 20 µM final concentration for compound 19; 35 µM final concentration for compounds 21 and 24. […] The compounds were added to the cell media 1 h before the incubation with Aβ1-42 or L-ascorbic acid/ferrous sulphate. Aβ1-42 or L-ascorbic acid/ferrous sulphate where incubated alone or with the compound for an additional 24 h. Aβ1-42 was prepared as 276.9 µM stock in sterile water and added to the medium at 2.5 µM final concentration. Ferrous sulphate was freshly prepared as 0.36 M stock in water and added to the medium at 500 µM final concentration. L-Ascorbic Acid was freshly prepared as 80 mM stock in water and added to the medium at 5 mM final concentration. Aβ1-42 was purchased from Bachem (Torrance, CA, USA) and ferrous sulphate and L-ascorbic acid from Sigma Chemical Co (St. Louis, MO, USA).
Cell viability was determined by the MTT (3–(4,5-dimethylthiazol-2-yl)-2,5-diphenyltetrazolium bromide) reduction test. In viable cells, the enzyme succinate dehydrogenase metabolises MTT into a formazan that absorbs light at 570 nm. Following the cell treatment protocol, the medium was aspirated and 0.5 mL MTT (0.5 mg/mL) was added to each well. The plate was then incubated at 37 °C for 1 h 30 min protected from light. At the end of the incubation period, the formazan precipitates were solubilised with 0.5 mL of acidic isopropanol (0.04 M HCl/isopropanol). The absorbance was measured at 570 nm[51]. Cell reduction ability was expressed as a percentage of untreated control cells.
Background: Tetrazolium assays rely on reduction of a dye to a coloured formazan, in cell work by metabolically active cells.

The test system of data set [2] is SH-SY5Y cells. Briefly: Neuroprotection from Aβ42-induced toxicity, MTT reduction assay. Particulars: Aβ42 2.5 μM 24 h; 1 h pre-incubation + 24 h co-incubation; 18, 19, 20, 23 at 20 µM; 21, 24 at 35 µM. It counts as cell-based, human. On the procedure:
Figure 8. Neuroprotective effect of TAC-BF hybrids from Aβ42-induced toxicity on SH-SY5Y cells. Cells were treated with Aβ42 peptide (2.5 μM) for 24 h in the absence or in the presence of the compounds (1 h pre-incubation + 24 h co-incubation). Evaluation of cell viability was performed using the MTT reduction assay. […] (compounds: 18, 19, 20 and 23 – 20 µM; 21, 24 – 35 µM).
(§1) SH-SY5Y human neuroblastoma cell line (ATCC-CRL-2266) is grown in Dulbecco’s modified Eagle’s medium (DMEM), and were obtained from Gibco-Invitrogen (Life Technologies Ltd, UK) with 10% heat inactivated foetal calf serum, containing 50 U/mL penicillin and 50 µg/mL streptomycin, under a humidified atmosphere of 95% air- 5% CO2 at 37 °C. Cells were plated at 0.12 × 10^6 cells/mL for cell viability assay. The tested compounds (18, 19, 20, 21, 23 and 24) were dissolved in DMSO at a concentration of 50 mM and aliquots were stored at −20 °C. We performed a dose-response screening (from 10 µM to 40 µM) in order to choose the highest non-toxic concentration. […]
(§2) Cell viability was determined by the MTT (3–(4,5-dimethylthiazol-2-yl)-2,5-diphenyltetrazolium bromide) reduction test. […] The absorbance was measured at 570 nm[51]. Cell reduction ability was expressed as a percentage of untreated control cells.

In data set [3] the test system is SH-SY5Y cells. Briefly: Neuroprotection against ascorbate/iron (Asc/Fe) toxicity, MTT reduction assay. It counts as cell-based, human. Particulars: Asc/Fe 5 mM/500 μM 24 h after 1 h compound; 18, 19, 20, 23 at 20 µM; 21, 24 at 35 µM. As for the experimental part:
Figure 9. Neuroprotective effect of TAC-BF conjugates against L-Ascorbic Acid (AscH(-))/Ferrous Sulphate (Fe) toxicity on SH-SY5Y cells. Cells were treated with Asc/Fe (5 mM/500 μM, respectively) for 24 h, after treatment for 1 h in the absence or in the presence of the compounds. Evaluation of cell viability was performed by using MTT reduction assay. […] (compounds: 18, 19, 20 and 23 – 20 µM; 21, 24 – 35 µM).
as §1, §2

Data set [4] is described as follows: Fe(III) complexation, UV-vis spectrophotometric titration. It counts as physicochemical. As to conditions: 25% w/w DMSO/water. On the procedure: It has been largely accepted that chelators interfere both in metal-induced Aβ aggregation/neurotoxicity and on metal homeostasis of AD brains. Among the hybrids with BF hydroxyl substituent, compound 21 was chosen as a representative model to analyse the concomitant chelating capacity towards the redox-active (Fe(III), Cu(II)) and Aβ-binding (Cu(II)) metal ions. Due to solubility reasons, these studies were performed in a mixed 25% (w/w) DMSO/water medium, In fact, DMSO was chosen because it is a widely used and well tolerated solvent in biological and cellular studies, the amounts of ligand (<7 µM) and DMSO (<1%) employed in culture media being quite low with concomitant no alterations observed in cells.
The chelating ability of compound 21 towards the two metal ions under study (Fe(III) and Cu(II)) was evaluated on the basis of the global formation constants of the complexes, obtained by treatment of the UV-vis spectrophotometric data (see Table 1).
For the metal complexation studies, the aqueous iron (FeCl3, 0.0177 M) and copper (CuCl2, 0.015 M) stock solutions were prepared from 1000 ppm standards (Titrisol) and their metal content was evaluated by atomic absorption. To prevent hydrolysis, the iron stock solution was prepared in excess of acid chloride and its exact concentration in HCl determined by the usual standard-addition method using 0.1 M HCl (Titrisol). The 0.1 M HCl solution, used in spectrophotometric titrations, was prepared from a Titrisol ampoule while the titrant was from carbonate free commercial concentrate (Titrisol, KOH 0.1 M ampoules). The KOH solution was standardised by titration with a solution of potassium hydrogen phthalate and was discarded whenever the percentage of carbonate, determined by Gran’s method, was greater than 0.5% of the total amount of base.
The electronic spectra and the AChE inhibition assays were performed in a 1-cm path length quartz cell with a Perkin Elmer Lambda 35 spectrophotometer equipped with a temperature programmer PTP1 + 1 Peltier System (T = 25.0 ± 0.1 °C). The enzyme AChE 500 U, extracted from Electrophorus electricus (electric eel), was purchased from Sigma-Aldrich.

As for `O=C(NCCCCNc1c2c(nc3cc(Cl)ccc13)CCCC2)c1cc2cccc(O)c2o1` [Compound 24, N-(4-((6-chloro-1,2,3,4-tetrahydroacridin-9-yl)amino)butyl)-7-hydroxybenzofuran-2-carboxamide], the “highest non-toxic concentration selected from dose-response screening” value (shortened to “highest non-toxic concentration selected”) in data set [1] is listed as 35 µM.

With `COc1cccc2cc(C(=O)NCCCNc3c4c(nc5cc(Cl)ccc35)CCCC4)oc12` [Compound 19, N-(3-((6-chloro-1,2,3,4-tetrahydroacridin-9-yl)amino)propyl)-7-methoxybenzofuran-2-carboxamide], the “highest non-toxic concentration selected” value in data set [1] is given as 20 µM. Also, the “Neuroprotective effect from Aβ42-induced toxicity (cell viability)” value in data set [2] is “prevented that Aβ-induced cell toxicity”. In data set [3], the “Neuroprotective effect against Asc/Fe toxicity (cell viability)” value was “appeared to best achieve cell protection from Asc/Fe-induce oxidative stress”.

In the case of `O=C(NCCCNc1c2c(nc3ccccc13)CCCC2)c1cc2cccc(O)c2o1` [Compound 21, 7-Hydroxy-N-(3-((1,2,3,4-tetrahydroacridin-9-yl)amino)propyl)benzofuran-2-carboxamide], the “highest non-toxic concentration selected” value in data set [1] is 35 µM. In data set [4] (T = 25.0 °C, I = 0.1 M KCl), the “log βFemHhLl, species (1–22)” value was 12.21(8); the “log βFemHhLl, species (103)” value is given as 36.95(7); the “log βFemHhLl, species (111)” value is reported as 22.90(6); the “log βFemHhLl, species (112)” value is recorded as 38.37(6). Further, the “pM (pFe) = −log[M]” value in data set [4] (pH 7.4, CL/CM = 10, CM = 10^−6 M) amounted to 22.2. For the same molecule, in data set [3], the “Neuroprotective effect against Asc/Fe toxicity (cell viability)” value is “lowest capacity for in cell radical scavenging”.

In the case of `O=C(NCCCNc1c2c(nc3cc(Cl)ccc13)CCCC2)c1cc2cccc(O)c2o1` [Compound 23, N-(3-((6-chloro-1,2,3,4-tetrahydroacridin-9-yl)amino)propyl)-7-hydroxybenzofuran-2-carboxamide], the “highest non-toxic concentration selected” value in data set [1] was found to be 20 µM. The “Neuroprotective effect from Aβ42-induced toxicity (cell viability)” value in data set [2] was “prevented that Aβ-induced cell toxicity”.

With `COc1cccc2cc(C(=O)NCCCCNc3c4c(nc5cc(Cl)ccc35)CCCC4)oc12` [Compound 20, N-(4-((6-chloro-1,2,3,4-tetrahydroacridin-9-yl)amino)butyl)-7-methoxybenzofuran-2-carboxamide], the “highest non-toxic concentration selected” value in data set [1] is on record as 20 µM.

Source of the values: PMC7567501 (Journal of Enzyme Inhibition and Medicinal Chemistry, 2019).
